# Biological target: T1, A. aeolicus TsaD2B2 (TsaD-TsaB) (Aquifex aeolicus, UniProt O66986)
# T1 construct: recombinant from E. coli; co-expressed (pET21a-BC10_DZop), C-terminal 6His on TsaB; tetramer; Cys10 of TsaD oxidized (CSO10) in crystals; with tRNA threonylcarbamoyladenosine biosynthesis protein TsaB
# Experiment: LC-MS of tRNA t6A formation
# Assay type: biochemical
# Conditions: isolated TC-AMP 30 uM, EDTA-dialyzed TsaD2B2 plus MgCl2, FeCl2 or ZnCl2 100 uM, 60 uM tRNA-Lys(UUU), no TsaE
# T1 sequence (O66494 entry or part of it): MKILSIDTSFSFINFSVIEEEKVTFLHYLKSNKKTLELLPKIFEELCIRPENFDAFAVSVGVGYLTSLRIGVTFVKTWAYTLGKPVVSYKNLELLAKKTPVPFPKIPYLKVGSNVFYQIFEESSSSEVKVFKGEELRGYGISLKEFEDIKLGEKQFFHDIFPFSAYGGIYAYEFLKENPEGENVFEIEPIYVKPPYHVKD
# T1 sequence (O66986 whole entry): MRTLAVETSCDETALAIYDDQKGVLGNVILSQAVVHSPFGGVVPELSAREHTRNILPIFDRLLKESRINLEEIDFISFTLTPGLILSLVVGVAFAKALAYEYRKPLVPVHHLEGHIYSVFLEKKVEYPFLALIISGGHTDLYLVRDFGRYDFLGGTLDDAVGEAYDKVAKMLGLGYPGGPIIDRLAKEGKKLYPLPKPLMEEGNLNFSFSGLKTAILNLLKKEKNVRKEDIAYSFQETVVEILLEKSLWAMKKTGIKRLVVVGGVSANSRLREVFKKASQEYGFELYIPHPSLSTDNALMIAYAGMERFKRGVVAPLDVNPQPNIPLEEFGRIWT
structure (smiles),measurement,value
C[C@@H](O)[C@H](NC(=O)OP(=O)(O)OC[C@H]1O[C@@H](n2cnc3c(N)ncnc32)[C@H](O)[C@@H]1O)C(=O)O [TC-AMP],LC-MS of tRNA t6A formation,"we only used EDTA-dialyzed TsaD2B2, HPLC-purified TC-AMP, and SEC-purified IVT tRNA^LysUUU"
